# Measurements published in publication PMC10108345, “Differentiating Inhibition Selectivity and Binding Affinity of Isocitrate Dehydrogenase 1 Variant Inhibitors” (Journal of Medicinal Chemistry, 2023).
# Experiments:
# [1] = target: T1, wt IDH1 (Homo sapiens, UniProt O75874); test: Non-denaturing MS binding, wt IDH1
# T1 construct: made in house; host or cells: Escherichia coli BL21(DE3) pLyS
# Experimental: Non-denaturing mass spectra were obtained using a quadrupole time-of-flight mass spectrometer (Synapt HD MS, Waters, Manchester, UK).[44],[45] […] Protein concentrations were measured using a Nanodrop spectrometer (Thermo Scientific NanoDrop One). Compounds were dissolved in MeOH to avoid DMSO interference with mass spectra. IDH1 (20 μL of 50 μM final) and the compound of interest (1–4% (v/v) MeOH) in 200 mM ammonium acetate at pH 7.5 were pipetted into wells of a sample plate of an automated chip-based nano-electrospray ion source (TriVersa Nanomate, Advion, Ithaka, NY, USA). Compounds were serially diluted in buffer and mixed with IDH1 diluted in buffer. The mixture was sprayed through a nozzle in a Nanomate chip at a spray voltage of 1.8–2.0 kV (spray backing gas pressure 0.8–1.0 psi, inlet pressure 3.8 mbar). […] Data collection and analyses used Waters MassLynx software. Mass spectra were calibrated externally using CsI solution. KD values were calculated using eq 2 as reported[46] at each compound concentration and are reported as an average across multiple concentrations. For inhibitors with a binding stoichiometry of two inhibitors/IDH dimer, the inhibitor-bound protein peak intensity used was a sum of first and second inhibitor-bound protein peak intensities. Data for the IDH1 dimer m/z = 20^+ charge state are shown. For clarity, only 2× NADPH bound protein peaks are annotated.
# [2] = target: T2, IDH1 R132H (Homo sapiens, UniProt O75874, R132H); test: 1H NMR (700 MHz) reaction monitoring, IDH1 R132H-catalysed conversion of 2OG to 2HG; type: biochemical; conditions: 1 μM IDH1 R132H, 20 μM compound, over […]; in words
# T2 construct: made in house; host or cells: Escherichia coli BL21(DE3) pLyS
# T2 sequence (O75874 whole entry R132H): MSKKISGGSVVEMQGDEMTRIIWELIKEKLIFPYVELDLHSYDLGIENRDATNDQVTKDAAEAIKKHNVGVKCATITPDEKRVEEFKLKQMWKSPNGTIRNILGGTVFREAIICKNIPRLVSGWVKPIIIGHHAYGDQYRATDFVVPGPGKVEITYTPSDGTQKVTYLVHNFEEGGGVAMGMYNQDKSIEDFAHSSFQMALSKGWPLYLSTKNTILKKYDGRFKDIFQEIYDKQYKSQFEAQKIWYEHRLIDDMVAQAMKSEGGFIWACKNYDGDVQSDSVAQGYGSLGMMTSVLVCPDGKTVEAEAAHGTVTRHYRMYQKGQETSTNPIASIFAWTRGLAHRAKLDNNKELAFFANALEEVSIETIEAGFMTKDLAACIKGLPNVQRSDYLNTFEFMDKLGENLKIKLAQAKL
# Experimental: Nuclear magnetic resonance (NMR) reaction monitoring was performed at 298 K using a Bruker AVIII 700 MHz NMR spectrometer with a 5 mm inverse triple-carbon-inverse (TCI) cryoprobe in 5 mm tubes (Norell). Data were recorded with a relaxation delay of 2 s and 32 scans, employing a pulse sequence with water suppression (^1H excitation sculpting suppression with perfect-echo using a 2 ms Sinc selective inversion pulse). There is a time delay of 184 s between each acquired spectrum over the time-course experiment. Conversion of 2OG to 2HG catalyzed by IDH1 R132H was monitored using 500 μL of 1 μM IDH, 20 μM compound [0.4% (v/v) DMSO, 10 min pre-incubation with IDH], 10 mM MgCl2, 1.5 mM NADPH, and 1.5 mM 2OG, in 50 mM tris-D11-HCl, pH 7.5 in 90% H2O/10% D2O (v/v). Data were processed with TopSpin 3.6.1 software. Signals corresponding to NADPH, NADP^+, 2OG, and 2HG at each time point over a total of 2 to 3 h were integrated, converted to concentrations, and plotted against time. The difference in concentrations in the linear range of the reaction profile was converted to % residual activity with the DMSO control defined as the 100% residual activity reference.
# [3] = target: T1, wt IDH1; test: Differential scanning fluorimetry (DSF) thermal shift, wt IDH1; type: binding; conditions: largest change in Tm of IDH1 ([…]) with 3-100 μM inhibitor
# Experimental: Thermal shift experiments were carried out using Sypro Orange and a CFX96 Touch Real-Time PCR Detection System (Bio-Rad) machine.[42] […] The standard assay buffer contains 50 mM tris–HCl at pH 7.5. Various concentrations of compounds (1% DMSO final) were mixed with IDH1 for thermal stabilization studies. […] Bio-Rad CFX Manager was used to determine the melting temperature, Tm.
# T1 sequence (O75874 whole entry): as the sequence (O75874 whole entry R132H) above, with H132R counted along it
compound,measurement,setting,value
Cc1ccccc1C(C(=O)NC1CCCCC1)N(C(=O)Cn1ccnc1C)c1cccc(F)c1 (stereo not shown) [AGI-5198],"stoichiometry, inhibitors per IDH1 dimer, wt IDH1",[1]; Figure S7a,1
same,Kd,"[1]; IDH 50 μM, 200 mM ammonium acetate pH 7.5",608 µM
same,inhibition of IDH1 R132H catalysed conversion of 2OG to 2HG monitored by 1H NMR,[2],weaker inhibition
same,Δ Tm/°C by DSF wt IDH1,[3],6.9 °C
